Source: patent US10570179B2, “Substituted urea depsipeptide analogs as activators of the CLPP endopeptidase” (priority 2016, dated 2020)
≈ marks a conversion by molar mass, not a printed value. Numbered stars: 1 amine (or outer) side, 2 acyl side, 3 side chain; on linkers, the order of the positions; unused ones are H or OH. Bridge positions count the residues as written; N and C are the ends. Square brackets hold non-standard residues; d marks the D form. Peptide text beside a SMILES is read from it. * marks the point of attachment. Piperazine(2S-CO,4-Me) = CN1CCN[C@H](C(=O)O)C1; Phe(3-Me) = Cc1cccc(C[C@H](N)C(=O)O)c1; NH(4-Cl-2-F-phenyl) = Fc1cc(Cl)ccc1N*; Pro(4R-Me) = C[C@H]1CN[C@H](C(=O)O)C1; aThr = C[C@H](O)[C@H](N)C(=O)O; CO = O=C([*:1])[*:2]; X2 = Fc1cc(N*)ccc1Cl

Columns and labels:
[1] = Microsomal metabolic stability; assay type: in vitro ADME, human; conditions: human, pH 7.4
Solubility determination = assay type: physicochemical; conditions: for solubility kinetic at 10 min: 22 °C, aqueous buffer, kinetic from dmso stock
How it was run: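 DMSO stock spiked into DPBS at 100 µM final, in triplicate, shaken 10 min, then centrifuged 20 min at 22 °C. Supernatant quantified by UPLC-UV and single-ion-recording MS against DMSO calibration standards (0.098–100 µM), using 1/x²-weighted linear regression.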

Plasma stability assay = assay type: in vitro ADME, mouse; conditions: mouse, 10 μM
How it was run: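 Compounds at 10 μM final in human or mouse plasma, incubated at 37 °C and sampled at 0, 3, 24 and 48 h in triplicate. Reactions quenched with cold acetonitrile containing warfarin internal standard; parent measured by LC-MS. Half-life from least-squares first-order fit.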

SMILES | Human [1] [h] | μsol (μM) (Solubility determination) [µM] | solubility kinetic at 10 min (Solubility determination) [µM] | Mouse (Plasma stability assay) [h]
Cc1cccc(C[C@H](NC(=O)Nc2ccc(Cl)c(F)c2)C(=O)N[C@H]2COC(=O)[C@@H]3C[C@@H](C)CN3C(=O)[C@H](C)NC(=O)[C@@H]3CN(C)CCN3C(=O)[C@@H]3CCCN3C2=O)c1 [Compound 14, (S)-2-(3-(4-CHLORO-3-FLUOROPHENYL)UREIDO)-3-(M-TOLYL)-N-((6AS,12S,15AS,17R,21S,23AS)-2,17,21-TRIMETHYL-6,11,15,20,23-PENTAOXOOCTADECAHYDRO-2H,6H,11H,15H-PYRAZINO[2,1-I]DIPYRROLO[2,1-C:2′,1′-L][1]OXA[4,7,10,13]TETRAAZACYCLOHEXADECIN-12-YL)PROPANAMIDE] ({X2-CO}-[Phe(3-Me)]SP[Piperazine(2S-CO,4-Me)]A[Pro(4R-Me)]; ester 2-C) | 0.73 ± 0.07 | 43.6 ± 1.8 | 39.3 ± 1.9 (≈ 32.4 µg/mL) | 9.55 ± 0.8
Cc1cccc(C[C@H](NC(=O)Nc2ccc(Cl)cc2F)C(=O)N[C@@H]2C(=O)N3CCC[C@H]3C(=O)N3CCN(C)C[C@H]3C(=O)N[C@@H](C)C(=O)N3C[C@H](C)C[C@H]3C(=O)O[C@H]2C)c1 [Compound 11, (S)-2-(3-(4-CHLORO-2-FLUOROPHENYL)UREIDO)-N-((6AS,12S,13S,15AS,17R,21S,23AS)-2,13,17,21-TETRAMETHYL-6,11,15,20,23-PENTAOXOOCTADECAHYDRO-2H,6H,11H,15H-PYRAZINO[2,1-I]DIPYRROLO[2,1-C:2′,1′-L][1]OXA[4,7,10,13]TETRAAZACYCLOHEXADECIN-12-YL)-3-(M-TOLYL)PROPANAMIDE] ({NH(4-Cl-2-F-phenyl)-CO}-[Phe(3-Me)][aThr]P[Piperazine(2S-CO,4-Me)]A[Pro(4R-Me)]; ester 2-C) | 0.91 ± 0.10 | 32.2 ± 1.4 | 43.2 ± 3.14 (≈ 36.3 µg/mL) | 36.62
